The values that follow come from patent US20090233999A1, “COMPOSITIONS AND THERAPEUTIC METHODS INVOLVING ISOFLAVONES AND ANALOGUES THEREOF” (NOVOGEN RESEARCH PTY LTD, priority 1999, published 2009).

The test system of one assay is VCAM-1. Nature of the assay: TNFα-induced VCAM expression on HAECs (ELISA). The class given is cell-based, human. As to conditions: 10 μM. As for the experimental part:
Inhibition of TNFα-stimulated endothelial cell activation by compounds was assessed by measuring surface expression of cell adhesion molecules with an ELISA. Human arterial endothelial cells (HAECs) in growth medium (Cell Applications Inc.) were seeded into 96-well plates at a density of 10,000 cells per well. Plates were incubated overnight at 37° C. in a humidified incubator to allow for cells to become confluent. On the morning of the experiment, TNFα (10 μl, 2 ng/ml) was added to each well, which contained 100 μl of medium. Compounds were diluted in DMSO-containing medium (2.5% DMSO) to give a compound concentration of 100 and 300 μM. Compounds were added to wells so that final concentrations were 10 and 30 μM. DMSO-containing medium alone was added to zero concentration control wells. All samples were measured in quadruplicate (4 wells per treatment).
After incubation with compound for 4 hours, medium was removed and cells were probed with either non-specific IgG or specific mouse antibodies against VCAM, ICAM or E-selectin (BD Biosciences—0.1 μg in 100 μL buffered saline with 10% heat-inactivated human serum). Adhesion molecule expression was detected by addition of sheep anti-mouse antibody/horseradish peroxidase conjugate. Plates were allowed to stand for 30 minutes—monolayers were then washed, and sheep anti-mouse antibody/horseradish peroxidase conjugate (1:500 in 100 μL HBSS with 10% heat-inactivated human serum and 0.05% Tween 20) was added and left for 30 minutes. After further washing, 150 μL ABTS substrate (Kirkegaard and Perry Laboratories) was added to each well and allowed to develop for 15 minutes. Optical density was measured at 405 nm with an ELISA reader (Titertek Multiscan, Flow Laboratories).
On the technique in general: In an ELISA, binding on a coated surface is turned into a signal by an enzyme label.

For a further assay, the target named is T1, PPARγ (Homo sapiens, UniProt P37231).
T1 construct: host or cells: HEK293 (human embryonic kidney), stably transfected
T1 sequence (P37231 238-503 limits assumed): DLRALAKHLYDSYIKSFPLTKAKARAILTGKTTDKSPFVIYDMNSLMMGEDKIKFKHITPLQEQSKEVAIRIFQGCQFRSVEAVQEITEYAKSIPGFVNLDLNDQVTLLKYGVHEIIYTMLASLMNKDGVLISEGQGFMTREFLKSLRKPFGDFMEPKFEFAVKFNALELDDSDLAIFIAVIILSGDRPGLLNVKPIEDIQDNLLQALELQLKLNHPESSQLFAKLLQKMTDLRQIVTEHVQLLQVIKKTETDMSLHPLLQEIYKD
As to the kind of experiment: PPARγ agonist activity, GAL4-PPARγ beta-lactamase reporter HEK293 cells. The assay is classed as cell-based. As to conditions: FIG. 11: 5 μM. As for the experimental part:
Human HEK293 cells, stably transfected with the PPARγ ligand binding domain fused with the DNA binding domain of the GAL4 protein (GAL4-PPARγ fusion protein), produce beta-lactamase when incubated with PPARγ ligands. Transfected human kidney embryonic cells (Invitrogen Inc., Carlsbad, Calif.) were seeded onto matrigel in 96-well plates and allowed to attach overnight. The following day, vehicle alone (DMSO) or test compound at 1, 5 and 10 μM was added at varying concentrations to cells and incubated for 16-18 hours. Cells were then loaded with a FRET-based fluorescent substrate to assess beta-lactamase activity. Cells were protected from light, and incubated at room temperature for 2 h. Plates were read on a fluorescence plate reader with an excitation wavelength of 409 nm and emission wavelengths of 460 nm and 530 nm. Results were expressed as a ratio of these two wavelengths after the background (cell-free control wells) had been subtracted. PPARγ activity was thus determined by measuring beta-lactamase activity as assessed by a fluorescent product to substrate ratio.

Assay [1] relates to COX (PGE2 and TXB2 synthesis). As to the kind of experiment: LPS-induced prostanoid (PGE2, TXB2) synthesis in human monocytes. The class given is cell-based. As to conditions: LPS 200 ng/mL, 18 hrs, data at 10 μM. As for the experimental part:
Human peripheral blood monocytes were isolated from buffy coats by lymphoprep gradient separation followed by counter-current centrifugal elutriation. Test compounds were dissolved in DMSO and added to fresh monocytes to achieve concentrations of 0, 10 and 100 μM. After 30 min, lipopolysaccharide (LPS) was added to achieve a final concentration of 200 ng/mL. After incubation for 18 hrs at 37° C. in 5% CO2, supernatants were removed and PGE2 and TXB2 (the stable hydrolysis product of TXA2) production were measured by radioimmunoassay (RIA). ANOVA followed by Newman-Keuls multiple comparisons test was used to examine differences between doses and the control values.

Assay [2] has as its system Skh:hr-1 albino mice (UV-induced skin thickening). Nature of the assay: Murine model of UV irradiation-induced skin oedema. The class given is in vivo, mouse. As to conditions: for Change in skin thickness (mean ± SD, ×0.01 mm): 0.2 ml of 20 μM topical ×3. From the text: Groups of 4-5 female Skh:hr-1 albino mice were irradiated with 1×3 MED (minimal erythemal dose) of solar simulated UV radiation, provided by a planar bank of 6 UVA tube (Hitachi 40W F40T 10/BL, black light) and one UVB tube (Philips TL 40W/12RS) with radiation filtered through a sheet of 0.125 mm cellulose acetate (Eastman Chemical Products, Kingport, Term, USA) to give 2.96×10-4 W/cm2 UVA and 1.59×10-5 W/cm2 UVB. The distance of the UV lamp from the irradiance table surface was approximately 20 cm and temperature was controlled with an electric fan. During irradiation, the cages were rotated below the lights to reduce the variation in radiation intensity in different positions.
Either test compound (0.2 ml of a 20 μM solution) or vehicle (propylene glycol/ethanol (EtOH)/water 1:2:1) was applied to the irradiated dorsal skin at 30 min, 2 h and 4 h post-irradiation. Dorsal skin fold measurements were made with a spring micrometer prior to and at 24 hr and 48 h post-UV exposure. The difference in skin thickness pre- and post-exposure to UVR was calculated for each mouse, and the differences examined between test compound and vehicle control were analysed using an unpaired two-tailed t test.
The data are presented in tables, as well as graphically as the mean percentage inhibition of skin fold thickness, calculated as [1−[(mean % change skin thickness of test group/mean % change skin thickness of control group)×100]].

A further assay relates to rat aortic ring. Nature of the assay: Rat aortic ring assay, contractile response to noradrenaline. As to conditions: 1 μg/ml. As for the experimental part:
The vasodilatory capacity was examined ex vivo using the rat aortic ring assay.
Male Sprague-Dawley rats (250±50 g) were euthanased with 80% CO2 and 20% O2. The thoracic aorta was excised and quickly mounted in organ-baths as described. Full concentration-contractile curves were obtained to noradrenaline (0.1 nM-[…]) with and without test compounds delivered at a concentration of 1 μg/ml. Experiments were repeated in n=5 different rings from 5 different animals. Only one compound at any one concentration was tested on any one ring from any one animal. Sigmoidal dose response curves were fitted for the data and the logEC50 and the Ema, calculated (Prism 4, GraphPad Software). The difference in these values between the presence and absence of test compound was calculated using a two-tailed paired t test. The effects of β-oestrodiol and vehicle alone were examined as a positive and negative control respectively.

Setting [3] is: 24 hrs post-irradiation, vehicle 78 ± 23.
[4] abbreviates: 48 hrs post-irradiation, vehicle 147 ± 37.

For `COc1ccc(C2=Cc3ccc(O)c(C)c3OC2)cc1OC` [Cpd. 19, 7-Hydroxy-3′,4′-dimethoxy-8-methylisoflav-3-ene], the “TNFα-induced VCAM expression” value in the assay on VCAM-1 was “significantly inhibited”. Further, the “PPARγ activation (increase in beta-lactamase activity)” value at PPARγ was “some PPARγ agonist activity”. For the same molecule, the “COX inhibitory activity (inhibition of PGE2 and TXA2 production)” value (“COX inhibitory activity” for short) in assay [1] is recorded as “significant COX inhibitory activity”. Moreover, the “Change in skin thickness (mean ± SD, ×0.01 mm)” value (from here on “Change … (mean ± SD, ×0.01 mm)”) in assay [2] (setting [3]) was 63 ± 8.1 ×0.01 mm; in assay [2] (setting [4]) it was 96 ± 5 ×0.01 mm. For the same molecule, the “UV-induced inflammation at 48 hrs” value in assay [2] (48 hrs) is listed as “significantly inhibited”.
On to `COc1cccc(C2=Cc3ccc(O)cc3OC2)c1` [Cpd. 16, 7-Hydroxy-3′-methoxyisoflav-3-ene], for which, in the assay on VCAM-1, the “TNFα-induced VCAM expression” value is “intermediate activity”. Moreover, the “PPARγ activation (increase in beta-lactamase activity)” value on PPARγ is reported as “some PPARγ agonist activity”. In addition, in assay [1], the “COX inhibitory activity” value is “significant COX inhibitory activity”. Also, the “Change … (mean ± SD, ×0.01 mm)” value was 61 ± 13 ×0.01 mm in assay [2] (setting [3]) and 111 ± 15 ×0.01 mm in assay [2] (setting [4]).
`Cc1c(O)ccc2c1OCC(c1cccc(O)c1)=C2` [Cpd. 14, 3′,7-Dihydroxy-8-methylisoflav-3-ene]: the “COX inhibitory activity” value in assay [1] is reported as “significant COX inhibitory activity”. Also, the “Change … (mean ± SD, ×0.01 mm)” value in assay [2] (setting [3]) came to 77 ± 5.6 ×0.01 mm; in assay [2] (setting [4]), 137 ± 16 ×0.01 mm.
Consider `Oc1ccc(C2=Cc3ccc(O)c(Br)c3OC2)cc1` [Cpd. 20, 4′,7-Dihydroxy-8-bromoisoflav-3-ene], for which, in the assay on VCAM-1, the “TNFα-induced VCAM expression” value is “significantly inhibited”. In the assay on rat aortic ring, the “contractile response (logEC50) of the aortic ring to noradrenaline” value (“contractile response (logEC50)” for short) was “significantly inhibited” and the “strength of the contractile response (Emax)” value is listed as “reduced”. Also, on PPARγ, the “PPARγ activation (increase in beta-lactamase activity)” value was “some PPARγ agonist activity”. Besides, the “COX inhibitory activity” value in assay [1] was “significant COX inhibitory activity”. Further, the “UV-induced inflammation at 24 hrs” value in assay [2] (24 hrs) was “significantly inhibited”. Also, the “Change … (mean ± SD, ×0.01 mm)” value in assay [2] (setting [3]) is 38 ± 4 ×0.01 mm. The “Change … (mean ± SD, ×0.01 mm)” value in assay [2] (setting [4]) was 123 ± 39 ×0.01 mm.
Regarding `Oc1ccc2c(c1)OCC(c1ccc(Br)cc1)=C2` [Cpd. 21, 4′-Bromo-7-hydroxyisoflav-3-ene], the “contractile response (logEC50)” value with rat aortic ring is reported as “inhibited”.
As to `COc1ccc(C2=Cc3ccc(O)cc3OC2)cc1OC` [Cpd. 18, 7-Hydroxy-3′,4′-dimethoxyisoflav-3-ene], in the assay with VCAM-1, the “TNFα-induced VCAM expression” value is “significantly inhibited”. For the same molecule, the “contractile response (logEC50)” value with rat aortic ring is reported as “inhibited”. In addition, the “COX inhibitory activity” value in assay [1] is “significant COX inhibitory activity”.
